Consider 25 molecules from patent publication US12201633B2, “Compounds and methods for treatment of visceral pain” (Arena Pharmaceuticals, Inc., priority 2017, dated 2025).

For assay [1], the system named is rats following ligation of spinal nerves. To be noted: cited from earlier work.
Assay [2] has as its system acute and chronic pain from chemical, mechanical, and thermal pain stimuli. The following applies: animal studies; cited from earlier work.
In assay [3] the target is T1, human CB2 receptor (Homo sapiens, UniProt P34972). The assay can be described thus: PathHunter β-arrestin assay, CB2.
Assay [4] has as its target T1, human CB2 receptor. The assay can be described thus: HTRF assay for direct cAMP measurement, CB2. Also noted: 93-0164 (CHO-K1 EA-Arrestin parental line); host or cells: CHO-K1 EA-Arrestin, clone #61. Format: cell-based.
For another assay, the target named is hCB1 (Homo sapiens, UniProt P21554). The assay can be described thus: PathHunter β-arrestin assay, CB1.
Chain of hCB1 (P21554 whole entry): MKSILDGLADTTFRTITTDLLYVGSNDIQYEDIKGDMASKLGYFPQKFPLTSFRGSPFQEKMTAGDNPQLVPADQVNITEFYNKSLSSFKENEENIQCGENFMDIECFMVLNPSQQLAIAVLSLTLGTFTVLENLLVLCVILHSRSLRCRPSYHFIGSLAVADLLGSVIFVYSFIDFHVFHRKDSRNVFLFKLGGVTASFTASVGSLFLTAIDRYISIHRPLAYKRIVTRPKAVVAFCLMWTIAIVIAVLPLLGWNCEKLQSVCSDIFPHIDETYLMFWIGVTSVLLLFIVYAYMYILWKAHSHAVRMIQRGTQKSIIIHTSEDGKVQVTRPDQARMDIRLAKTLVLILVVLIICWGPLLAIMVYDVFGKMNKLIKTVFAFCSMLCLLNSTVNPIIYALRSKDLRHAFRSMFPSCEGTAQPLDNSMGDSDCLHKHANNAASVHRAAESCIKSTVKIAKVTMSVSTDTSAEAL

T1 sequence (P34972 whole entry): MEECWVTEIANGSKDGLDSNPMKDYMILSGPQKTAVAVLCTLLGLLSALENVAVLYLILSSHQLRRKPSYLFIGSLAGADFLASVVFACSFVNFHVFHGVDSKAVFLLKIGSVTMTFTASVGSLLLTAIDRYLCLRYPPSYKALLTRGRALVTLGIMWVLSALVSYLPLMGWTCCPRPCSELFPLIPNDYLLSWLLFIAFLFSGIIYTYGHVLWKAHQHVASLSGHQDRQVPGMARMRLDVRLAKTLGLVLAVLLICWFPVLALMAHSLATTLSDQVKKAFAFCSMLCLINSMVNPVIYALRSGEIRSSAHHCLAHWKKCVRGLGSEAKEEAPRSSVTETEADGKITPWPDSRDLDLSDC

For the molecule `COc1ccc(C(=O)c2c(C)n(CCN3CCOCC3)c3cc(I)ccc23)cc1` [AM630], the “Effect on the reversal of hypersensitivity by AM1241” value in assay [1] is “inhibited”.

For the molecule `CCCCCCC(C)(C)c1ccc([C@@H]2C[C@H](O)CC[C@H]2CCCO)c(O)c1` [CP55,940], in assay [2], the “Efficacy against acute and chronic pain” value is “effective against acute and chronic pain”.

On to `CC(C)(C)NC(=O)c1nn(-c2cnccn2)c2c1C[C@H]1C[C@@H]21` [Compound 593, (1aR,5aR)-2-Pyrazin-2-yl-1a,2,5,5a-tetrahydro-1H-2,3-diaza-cyclopropa[a]pentalene-4-carboxylic acid tert-butylamide], for which the EC50 on human CB2 receptor [3] was determined as 34.6 nM; on human CB2 receptor [4], 7.15 nM; at hCB1 it was 1330 nM.

As for `CC(C)(CO)NC(=O)c1nn(-c2cc(C#N)ccn2)c2c1C[C@H]1C[C@@H]21` [Compound 644, (1aR,5aR)-2-(4-Cyano-pyridin-2-yl)-1a,2,5,5a-tetrahydro-1H-2,3-diaza-cyclopropa[a]pentalene-4-carboxylic acid (2-hydroxy-1,1-dimethyl-ethyl)-amide], the EC50 at human CB2 receptor [3] is 4.69 nM; at human CB2 receptor [4] it was 0.7 nM; on hCB1, 4470 nM.

Take `CC(C)[C@@H](CO)NC(=O)c1nn(-c2c[n+]([O-])ccn2)c2c1C[C@H]1C[C@@H]21` [Compound 690, (1aR,5aR)-2-(4-Oxy-pyrazin-2-yl)-1a,2,5,5a-tetrahydro-1H-2,3-diaza-cyclopropa[a]pentalene-4-carboxylic acid ((S)-1-hydroxymethyl-2-methyl-propyl)-amide]: the EC50 was 31 nM at human CB2 receptor [3] and 1.79 nM on human CB2 receptor [4].

Regarding `CC(C)(C)[C@@H](CO)NC(=O)c1nn(-c2cnccn2)c2c1C[C@@H]1C[C@H]21` [Compound 696, (1aS,5aS)-2-Pyrazin-2-yl-1a,2,5,5a-tetrahydro-1H-2,3-diaza-cyclopropa[a]pentalene-4-carboxylic acid ((S)-1-hydroxymethyl-2,2-dimethyl-propyl)-amide], the EC50 on human CB2 receptor [3] was determined as 49.4 nM; on human CB2 receptor [4], 6.89 nM.

Consider `O=C(NC1(CO)CCC1)c1nn(-c2c[n+]([O-])ccn2)c2c1C[C@H]1C[C@@H]21` [Compound 698, (1aR,5aR)-2-(4-Oxy-pyrazin-2-yl)-1a,2,5,5a-tetrahydro-1H-2,3-diaza-cyclopropa[a]pentalene-4-carboxylic acid (1-hydroxymethyl-cyclobutyl)-amide], for which the EC50 came out at 27.9 nM on human CB2 receptor [3] and 10.2 nM on human CB2 receptor [4].

Turning to `O=C(NC1(c2ccccn2)CCC1)c1nn(-c2c[n+]([O-])ccn2)c2c1C[C@@H]1C[C@H]21` [Compound 700, (1aS,5aS)-2-(4-Oxy-pyrazin-2-yl)-1a,2,5,5a-tetrahydro-1H-2,3-diaza-cyclopropa[a]pentalene-4-carboxylic acid (1-pyridin-2-yl-cyclobutyl)-amide], the results for the EC50 at human CB2 receptor [3] and at human CB2 receptor [4] were 31.5 nM and 3.14 nM, respectively.

`CNC(=O)[C@@H](NC(=O)c1nn(-c2c[n+]([O-])ccn2)c2c1C[C@H]1C[C@@H]21)C(C)(C)C` [Compound 704, (1aR,5aR)-2-(4-Oxy-pyrazin-2-yl)-1a,2,5,5a-tetrahydro-1H-2,3-diaza-cyclopropa[a]pentalene-4-carboxylic acid ((S)-2,2-dimethyl-1-methylcarbamoyl-propyl)-amide]: the EC50 was found to be 0.8 nM at human CB2 receptor [3], 0.2 nM on human CB2 receptor [4] and 228 nM on hCB1.

As to `CCNC(=O)[C@@H](NC(=O)c1nn(-c2c[n+]([O-])ccn2)c2c1C[C@H]1C[C@@H]21)C(C)(C)C` [Compound 728, (1aR,5aR)-2-(4-Oxy-pyrazin-2-yl)-1a,2,5,5a-tetrahydro-1H-2,3-diaza-cyclopropa[a]pentalene-4-carboxylic acid ((S)-1-ethylcarbamoyl-2,2-dimethyl-propyl)-amide], the figures for the EC50 on human CB2 receptor [3] and on hCB1 were 1.1 nM and 251 nM, respectively.

With `COC(=O)[C@@H](NC(=O)c1nn(-c2c[n+]([O-])ccn2)c2c1C[C@H]1C[C@@H]21)C(C)(C)C` [Compound 746, (S)-3,3-Dimethyl-2-{[(1aR,5aR)-2-(4-oxy-pyrazin-2-yl)-1a,2,5,5a-tetrahydro-1H-2,3-diaza-cyclopropa[a]pentalene-4-carbonyl]-amino}-butyric acid methyl ester], the EC50 worked out at 0.7 nM on human CB2 receptor [3] and 142 nM on hCB1.

In the case of `O=C(NC1(C(F)(F)F)CCC1)c1nn(-c2c[n+]([O-])ccn2)c2c1C[C@@H]1C[C@H]21` [Compound 765, (1aS,5aS)-2-(4-Oxy-pyrazin-2-yl)-1a,2,5,5a-tetrahydro-1H-2,3-diaza-cyclopropa[a]pentalene-4-carboxylic acid (1-trifluoromethyl-cyclobutyl)-amide], the EC50 at human CB2 receptor [3] was 1.16 nM; at human CB2 receptor [4], 0.1 nM.

With `CC(CO)(CO)NC(=O)c1nn(-c2cc(C#N)ccn2)c2c1C[C@H]1C[C@@H]21` [Compound 820, (1aR,5aR)-2-(4-Cyano-pyridin-2-yl)-1a,2,5,5a-tetrahydro-1H-2,3-diaza-cyclopropa[a]pentalene-4-carboxylic acid (2-hydroxy-1-hydroxymethyl-1-methyl-ethyl)-amide], the EC50 on human CB2 receptor [3] is 38.4 nM; at human CB2 receptor [4], 2.62 nM.

In the case of `CC1(NC(=O)c2nn(-c3c[n+]([O-])ccn3)c3c2C[C@H]2C[C@@H]32)CCC1` [Compound 821, (1aR,5aR)-2-(4-Oxy-pyrazin-2-yl)-1a,2,5,5a-tetrahydro-1H-2,3-diaza-cyclopropa[a]pentalene-4-carboxylic acid (1-methyl-cyclobutyl)-amide], the EC50 on human CB2 receptor [3] worked out at 7.12 nM; on human CB2 receptor [4], 0.6 nM.

In the case of `O=C(N[C@H](CO)C1CCOCC1)c1nn(-c2c[n+]([O-])ccn2)c2c1C[C@H]1C[C@@H]21` [Compound 841, (1aR,5aR)-2-(4-Oxy-pyrazin-2-yl)-1a,2,5,5a-tetrahydro-1H-2,3-diaza-cyclopropa[a]pentalene-4-carboxylic acid [(S)-2-hydroxy-1-(tetrahydro-pyran-4-yl)-ethyl]-amide], the EC50 on human CB2 receptor [3] turned out to be 17.5 nM; at human CB2 receptor [4] it was 1.4 nM; on hCB1 it was 1140 nM.

Regarding `O=C(NC(CO)(CF)CF)c1nn(-c2cc(Cl)ccn2)c2c1C[C@@H]1C[C@H]21` [Compound 889, (1aS,5aS)-2-(4-Chloro-pyridin-2-yl)-1a,2,5,5a-tetrahydro-1H-2,3-diaza-cyclopropa[a]pentalene-4-carboxylic acid (2-fluoro-1-fluoromethyl-1-hydroxymethyl-ethyl)-amide], the EC50 on human CB2 receptor [3] is 8.6 nM; on hCB1, 4070 nM.

With `N#Cc1ccnc(-n2nc(C(=O)N[C@H](CO)CC(F)(F)F)c3c2[C@H]2C[C@H]2C3)c1` [Compound 891, (1aS,5aS)-2-(4-Cyano-pyridin-2-yl)-1a,2,5,5a-tetrahydro-1H-2,3-diaza-cyclopropa[a]pentalene-4-carboxylic acid ((S)-3,3,3-trifluoro-1-hydroxymethyl-propyl)-amide], the values for the EC50 at human CB2 receptor [3] and on hCB1 were 16.2 nM and 11800 nM, respectively.

Turning to `CC(C)(CF)NC(=O)c1nn(-c2cc(Cl)ccn2)c2c1C[C@@H]1C[C@H]21` [Compound 897, (1aS,5aS)-2-(4-Chloro-pyridin-2-yl)-1a,2,5,5a-tetrahydro-1H-2,3-diaza-cyclopropa[a]pentalene-4-carboxylic acid (2-fluoro-1,1-dimethyl-ethyl)-amide], the EC50 stood at 3.79 nM on human CB2 receptor [3] and 951 nM at hCB1.

In the case of `CC(C)(C)[C@@H](CF)NC(=O)c1nn(-c2c[n+]([O-])ccn2)c2c1C[C@H]1C[C@@H]21` [Compound 918, (1aR,5aR)-2-(4-Oxy-pyrazin-2-yl)-1a,2,5,5a-tetrahydro-1H-2,3-diaza-cyclopropa[a]pentalene-4-carboxylic acid ((S)-1-fluoromethyl-2,2-dimethyl-propyl)-amide], the EC50 worked out at 1.01 nM on human CB2 receptor [3] and 437 nM at hCB1.

Regarding `O=C(N[C@H]1c2ccccc2C[C@H]1O)c1nn(-c2c[n+]([O-])ccn2)c2c1C[C@@H]1C[C@H]21` [Compound 921, (1aS,5aS)-2-(4-Oxy-pyrazin-2-yl)-1a,2,5,5a-tetrahydro-1H-2,3-diaza-cyclopropa[a]pentalene-4-carboxylic acid ((1S,2R)-2-hydroxy-indan-1-yl)-amide], the EC50 at human CB2 receptor [3] came out at 2.59 nM; at human CB2 receptor [4], 0.2 nM.

Regarding `O=C(NC1(CF)CCC1)c1nn(-c2c[n+]([O-])ccn2)c2c1C[C@@H]1C[C@H]21` [Compound 924, (1aS,5aS)-2-(4-Oxy-pyrazin-2-yl)-1a,2,5,5a-tetrahydro-1H-2,3-diaza-cyclopropa[a]pentalene-4-carboxylic acid (1-fluoromethyl-cyclobutyl)-amide], the concentration for a half-maximal effect (EC50) at human CB2 receptor [3] was determined as 10.5 nM; at human CB2 receptor [4] it was 0.8 nM.

On to `O=C(NC1(C(F)(F)F)CCC1)c1nn(-c2cnccn2)c2c1C[C@@H]1C[C@H]21` [Compound 926, (1aS,5aS)-2-Pyrazin-2-yl-1a,2,5,5a-tetrahydro-1H-2,3-diaza-cyclopropa[a]pentalene-4-carboxylic acid (1-trifluoromethyl-cyclobutyl)-amide], for which the results for the EC50 at human CB2 receptor [3] and on human CB2 receptor [4] were 4.43 nM and 0.2 nM, respectively.

`CCCCCc1cc(O)c2c(c1)OC(C)(C)[C@@H]1CCC(C)=C[C@@H]21` [THC]: the “Efficacy against acute and chronic pain” value in assay [2] is “effective against acute and chronic pain”.

For the molecule `Cc1c(C(=O)c2cccc3ccccc23)c2cccc3c2n1[C@H](CN1CCOCC1)CO3` [WIN 55212-2], the “Efficacy against acute and chronic pain” value in assay [2] is “effective against acute and chronic pain”.

As for `CCCCC/C=C\C/C=C\C/C=C\C/C=C\CCCC(=O)NCCO` [anandamide], the “Efficacy against acute and chronic pain” value in assay [2] was “effective against acute and chronic pain”.
